In paper PMC9467581 (Journal of Enzyme Inhibition and Medicinal Chemistry, 2022):
Where a name gives a salt, the structure may show the parent alone. Read-outs that look alike come from different tables or passages of the source.

Key:
[1] = molecular target: T1, eqBuChE (BuChE from equine serum) (Equus caballus, UniProt P81908); test: biochemical; type: biochemical; details: for BuChE selectivity: IC50(AChE)/IC50(BuChE); for IC50: [S] = 112 µM, mean ± SD
T1 construct: eqBuChE (BuChE from equine serum); from tissue; host or cells: equine serum
Method: (§1) The inhibitory activity of 12a–12d against AChE and BuChE was carried out following minor modifications of the Ellman assay,[30] as reported previously[31] using Thermo Scientific^TM Varioskan^TM LUX microplate reader and Greiner F-bottom 96-well plates.

[2] = molecular target: T2, eeAChE (AChE from Electrophorus electricus) (Electrophorus electricus, UniProt O42275); details: [S] = 121 µM; cited from earlier work
AChE = details: mixed inhibition of AChE; cited from earlier work
BuChE = molecular target: BuChE; design: method as in PMID 33228403; details: mixed inhibition of BuChE; cited from earlier work
[3] = molecular target: T2, eeAChE (AChE from Electrophorus electricus); test: biochemical; details: [S] = 121 µM; mean ± SD
Method: as §1

T2 sequence (O42275 24-633): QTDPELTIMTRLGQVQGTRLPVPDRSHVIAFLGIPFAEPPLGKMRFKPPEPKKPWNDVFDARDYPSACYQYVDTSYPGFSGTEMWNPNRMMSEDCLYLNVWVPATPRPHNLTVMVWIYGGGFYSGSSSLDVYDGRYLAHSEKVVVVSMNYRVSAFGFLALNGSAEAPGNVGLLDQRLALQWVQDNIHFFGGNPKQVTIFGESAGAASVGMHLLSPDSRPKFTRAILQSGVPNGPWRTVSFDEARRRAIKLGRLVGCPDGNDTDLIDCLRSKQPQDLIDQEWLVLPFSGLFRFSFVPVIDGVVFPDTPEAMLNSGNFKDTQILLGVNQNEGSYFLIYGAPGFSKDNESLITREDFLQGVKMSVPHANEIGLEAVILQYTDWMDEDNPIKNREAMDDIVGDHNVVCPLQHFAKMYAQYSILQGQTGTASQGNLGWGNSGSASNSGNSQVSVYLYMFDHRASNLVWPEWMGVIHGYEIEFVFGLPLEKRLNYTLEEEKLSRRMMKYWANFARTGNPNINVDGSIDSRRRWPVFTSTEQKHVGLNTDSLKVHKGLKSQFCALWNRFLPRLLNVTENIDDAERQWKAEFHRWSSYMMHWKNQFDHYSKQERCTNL
T1 sequence (P81908 whole entry): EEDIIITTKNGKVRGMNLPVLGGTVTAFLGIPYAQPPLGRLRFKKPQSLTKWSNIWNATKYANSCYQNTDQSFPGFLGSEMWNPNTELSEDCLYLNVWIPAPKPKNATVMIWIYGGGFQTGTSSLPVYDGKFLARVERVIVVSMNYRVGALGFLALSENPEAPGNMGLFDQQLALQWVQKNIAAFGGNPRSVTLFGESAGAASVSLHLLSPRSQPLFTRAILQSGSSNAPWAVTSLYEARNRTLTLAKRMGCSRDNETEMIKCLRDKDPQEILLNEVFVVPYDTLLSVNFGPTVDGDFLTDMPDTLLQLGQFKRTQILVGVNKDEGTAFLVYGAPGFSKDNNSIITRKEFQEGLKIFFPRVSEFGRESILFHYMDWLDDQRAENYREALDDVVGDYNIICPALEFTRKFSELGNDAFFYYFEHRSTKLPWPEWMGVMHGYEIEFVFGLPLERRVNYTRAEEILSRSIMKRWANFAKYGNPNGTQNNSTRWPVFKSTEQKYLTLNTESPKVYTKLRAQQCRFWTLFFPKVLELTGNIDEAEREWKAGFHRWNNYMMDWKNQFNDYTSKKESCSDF

Row | SMILES | BuChE selectivity [1] | IC50 [3] [µM] | IC50 [1] [µM] | further results
1 | OC[C@H]1NC[C@H](O)[C@@H](O)[C@@H]1O [Compound 4, 1-deoxynojirimycin, reference compound] | >10 |  |  | IC50 [2]: > 100 µM
2 | OC[C@@H]1[C@@H](O)[C@H](O)[C@@H](O)CN1CCCCCNC(=[Se])Nc1ccc(Br)cc1 [Compound 8] |  |  |  | Ki (AChE): 5.8 µM
3 | OC[C@@H]1[C@@H](O)[C@H](O)[C@@H](O)CN1Cc1cn(CCCCCCNc2c3c(nc4ccccc24)CCCC3)nn1 [Compound 9] |  |  |  | Ki (AChE): 0.0071 µM; αKi (AChE): 17.4 nM
4 | COc1ccc(CCOCCCCCCN2C[C@H](O)[C@@H](O)[C@H](O)[C@H]2CO)cc1OC [Compound 10] |  |  |  | Ki (BuChE): 1.4 µM; αKi (BuChE): 4.5 µM
5 | OC[C@@H]1[C@@H](O)[C@H](O)[C@@H](O)CN1CCCn1cc(Cn2nnc3ccccc32)nn1 [Compound 12a] | >10 | > 500 | 50 ± 3 | 
6 | OC[C@@H]1[C@@H](O)[C@H](O)[C@@H](O)CN1CCCCCCn1cc(Cn2nnc3ccccc32)nn1 [Compound 12b] | 9.7 | 65 ± 2 | 6.7 ± 0.7 | fold more potent BuChE inhibitor than 1-DNJ [1]: 1.5 fold; uncompetitive inhibition constant αKi ([1]; BuChE, Cornish-Bowden plots): 12 ± 1 µM; type of inhibition ([1]; BuChE, Cornish-Bowden plots (1/V vs. [I] and [S]/V vs. [I])): mixed inhibitor; Ki ([1]; BuChE, Cornish-Bowden plots, read-out: competitive inhibition constant Ki): 4.9 ± 0.4 µM
7 | OC[C@@H]1[C@@H](O)[C@H](O)[C@@H](O)CN1CCCCCCCCn1cc(Cn2nnc3ccccc32)nn1 [Compound 12c, N-(1-(2-((1H-benzo[1,2,3]triazol-1-yl)methyl)-1H-1,2,3-triazol-1-yl)octyl)-1-deoxynojirimycin hydrochloride] | >19 | > 500 | 26 ± 0.7 | 
8 | OC[C@@H]1[C@@H](O)[C@H](O)[C@@H](O)CN1CCCCCCCCCCn1cc(Cn2nnc3ccccc32)nn1 [Compound 12d, N-(1-(2-((1H-benzo[1,2,3]triazol-1-yl)methyl)-1H-1,2,3-triazol-1-yl)decyl)-1-deoxynojirimycin hydrochloride] |  | > 500 | 17 ± 0.7 | 
